Measured values from paper PMC10003107, “Selectivity of Hydroxamate- and Difluoromethyloxadiazole-Based Inhibitors of Histone Deacetylase 6 In Vitro and in Cells” (International Journal of Molecular Sciences, 2023).
Where “and” joins values, the source holds several entries; their conditions need not be identical. Equal values may be shown once.

Legend:
HDAC1-nanoLuc = HDAC1-nanoLuc (Homo sapiens, UniProt Q13547); test: nanoBRET target engagement assay, HDAC1; assay type: cell-based; settings: HEK293T/17 cells stably expressing HDAC1-nanoLuc, 2 h
Chain of HDAC1-nanoLuc (Q13547 whole entry): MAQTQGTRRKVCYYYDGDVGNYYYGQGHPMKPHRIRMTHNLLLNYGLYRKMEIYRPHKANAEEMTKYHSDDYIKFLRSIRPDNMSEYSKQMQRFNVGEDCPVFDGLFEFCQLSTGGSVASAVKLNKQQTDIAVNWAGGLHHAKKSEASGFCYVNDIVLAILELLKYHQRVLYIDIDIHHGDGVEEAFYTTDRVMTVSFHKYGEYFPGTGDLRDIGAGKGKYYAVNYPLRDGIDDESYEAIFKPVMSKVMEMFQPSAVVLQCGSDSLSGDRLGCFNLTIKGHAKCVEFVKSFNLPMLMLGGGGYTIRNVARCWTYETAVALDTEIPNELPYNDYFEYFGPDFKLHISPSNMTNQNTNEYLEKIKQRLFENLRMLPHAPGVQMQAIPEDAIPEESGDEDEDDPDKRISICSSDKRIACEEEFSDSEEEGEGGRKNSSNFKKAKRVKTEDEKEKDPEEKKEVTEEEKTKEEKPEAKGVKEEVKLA

HDAC1 = target: T1, HDAC1 (Homo sapiens, UniProt Q13547); test: In vitro deacetylation assay, HDAC1 (GAK substrate); assay type: biochemical; settings: for IC50: purified human HDAC1, GAK substrate 10 µM
T1 construct: HDAC1 1-482 Addgene; Strep-FLAG-HALO (N); made in house; host or cells: HEK293/T17
T1 sequence (Q13547 whole entry): as above

HDAC6-nanoLuc = target: T2, HDAC6-nanoLuc (Homo sapiens, UniProt Q9UBN7); test: nanoBRET target engagement assay, HDAC6; assay type: cell-based; settings: HEK293T/17 cells stably expressing HDAC6-nanoLuc, 2 h
T2 sequence (Q9UBN7 1-1215): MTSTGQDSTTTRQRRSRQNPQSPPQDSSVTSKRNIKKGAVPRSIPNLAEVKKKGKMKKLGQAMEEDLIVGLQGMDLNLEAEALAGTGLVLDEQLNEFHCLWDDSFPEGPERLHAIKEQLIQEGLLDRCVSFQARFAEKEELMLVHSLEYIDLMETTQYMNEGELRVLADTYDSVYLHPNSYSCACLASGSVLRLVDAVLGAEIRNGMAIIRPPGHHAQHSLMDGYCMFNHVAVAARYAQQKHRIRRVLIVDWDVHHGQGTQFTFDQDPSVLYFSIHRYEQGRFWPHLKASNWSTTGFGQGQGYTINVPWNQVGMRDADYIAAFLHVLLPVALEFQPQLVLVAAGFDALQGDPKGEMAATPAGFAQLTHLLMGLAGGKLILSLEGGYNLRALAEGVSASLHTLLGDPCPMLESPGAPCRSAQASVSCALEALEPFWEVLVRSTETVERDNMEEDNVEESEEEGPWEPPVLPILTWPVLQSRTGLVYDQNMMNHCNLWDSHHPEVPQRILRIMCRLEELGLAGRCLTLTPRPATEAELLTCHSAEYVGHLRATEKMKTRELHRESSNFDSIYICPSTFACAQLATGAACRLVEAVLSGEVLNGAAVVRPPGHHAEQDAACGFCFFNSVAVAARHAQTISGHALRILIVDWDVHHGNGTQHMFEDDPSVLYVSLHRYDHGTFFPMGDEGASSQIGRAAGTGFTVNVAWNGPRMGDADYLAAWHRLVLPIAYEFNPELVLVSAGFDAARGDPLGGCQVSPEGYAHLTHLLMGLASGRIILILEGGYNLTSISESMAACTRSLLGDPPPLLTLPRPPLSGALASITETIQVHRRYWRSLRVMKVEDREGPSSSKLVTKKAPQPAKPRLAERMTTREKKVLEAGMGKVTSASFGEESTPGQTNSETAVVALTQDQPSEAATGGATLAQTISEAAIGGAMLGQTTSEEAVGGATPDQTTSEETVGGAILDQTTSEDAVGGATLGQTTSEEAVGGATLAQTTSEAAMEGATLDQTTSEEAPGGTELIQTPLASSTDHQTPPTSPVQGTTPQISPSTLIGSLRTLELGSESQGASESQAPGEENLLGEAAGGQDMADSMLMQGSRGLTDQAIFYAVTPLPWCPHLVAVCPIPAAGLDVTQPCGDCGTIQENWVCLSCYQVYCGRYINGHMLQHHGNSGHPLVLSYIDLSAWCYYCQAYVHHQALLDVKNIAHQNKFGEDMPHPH

HDAC6 = target: T3, HDAC6 (Homo sapiens, UniProt Q9UBN7); test: In vitro deacetylation assay, HDAC6 (GAK substrate); assay type: biochemical; settings: for EC50: Figure 2C, in vitro data in μM; for IC50: purified human HDAC6, Ac-GAK-Ac-AMC (GAK) substrate 10 µM
T3 construct: HDAC6 2-1215 Open Biosystems; Strep-FLAG-HALO (N); made in house; host or cells: HEK293/T17
T3 sequence (Q9UBN7 2-1215): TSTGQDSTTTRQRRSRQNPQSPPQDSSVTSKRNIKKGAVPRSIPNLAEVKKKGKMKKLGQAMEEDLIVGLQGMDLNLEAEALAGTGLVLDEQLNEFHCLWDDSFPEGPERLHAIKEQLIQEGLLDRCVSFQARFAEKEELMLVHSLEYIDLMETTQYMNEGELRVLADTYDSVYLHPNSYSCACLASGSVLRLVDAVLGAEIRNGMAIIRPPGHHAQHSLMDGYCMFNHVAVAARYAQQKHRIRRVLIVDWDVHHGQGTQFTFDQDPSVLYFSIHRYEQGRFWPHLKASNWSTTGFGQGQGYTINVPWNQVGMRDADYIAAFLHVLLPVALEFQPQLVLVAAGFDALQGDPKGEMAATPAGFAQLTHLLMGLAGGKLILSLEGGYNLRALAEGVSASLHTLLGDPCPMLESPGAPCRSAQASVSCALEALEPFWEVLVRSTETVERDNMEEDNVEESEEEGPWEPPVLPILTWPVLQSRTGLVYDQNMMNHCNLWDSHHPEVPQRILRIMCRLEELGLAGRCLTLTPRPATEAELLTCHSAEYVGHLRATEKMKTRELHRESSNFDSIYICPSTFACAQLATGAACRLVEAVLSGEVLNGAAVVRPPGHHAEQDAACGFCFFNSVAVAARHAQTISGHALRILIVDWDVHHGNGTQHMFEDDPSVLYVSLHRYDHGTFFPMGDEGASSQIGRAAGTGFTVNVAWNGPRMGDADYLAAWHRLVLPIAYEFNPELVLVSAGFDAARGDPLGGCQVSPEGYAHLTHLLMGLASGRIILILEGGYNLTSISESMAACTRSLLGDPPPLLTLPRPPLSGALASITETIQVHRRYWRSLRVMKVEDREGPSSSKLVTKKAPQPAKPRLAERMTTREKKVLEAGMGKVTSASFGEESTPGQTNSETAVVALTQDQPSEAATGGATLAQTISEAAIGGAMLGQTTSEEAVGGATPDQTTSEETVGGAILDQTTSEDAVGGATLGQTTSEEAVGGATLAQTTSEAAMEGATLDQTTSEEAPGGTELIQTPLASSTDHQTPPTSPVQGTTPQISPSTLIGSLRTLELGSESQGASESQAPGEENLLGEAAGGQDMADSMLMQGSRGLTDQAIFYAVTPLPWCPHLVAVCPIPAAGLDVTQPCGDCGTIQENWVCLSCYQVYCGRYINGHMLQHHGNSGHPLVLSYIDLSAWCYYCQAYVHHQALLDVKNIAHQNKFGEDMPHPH

Row | EC50 (HDAC1-nanoLuc) | EC50 (HDAC1; Figure 2C, in vitro data (GAK) in μM) | IC50 (HDAC1) | SI (HD6/HD1) GAK, in vitro (HDAC1; ratio of IC50 HDAC1 (GAK) divided by IC50 HDAC6) | EC50 (HDAC6-nanoLuc) | EC50 (HDAC6) | IC50 (HDAC6) | SMILES
1 | > 50000 nM | 1.19 µM | 1190 nM | 1076 | 270 nM | 0.0011 µM | 1.11 nM | O=C(NO)c1cnc(NC2(c3cccc(F)c3)CCCCC2)nc1 [ACY-775]
2 | > 50000 nM |  | > 50000 nM |  | 160 nM | 0.0021 µM | 2.1 nM and 2.06 nM | CS(=O)(=O)N(Cc1ccc(-c2nnc(C(F)F)o2)cn1)c1cccc(Cl)c1 [compound 7, N-(3-chlorophenyl)-N-((5-(5-(difluoromethyl)-1,3,4-oxadiazol-2-yl)pyridin-2-yl)methyl)methanesulfonamide]
